Laboratory results as given in publication PMC8704432, “Isolation, Structure Determination of Sesquiterpenes from Neurolaena lobata and Their Antiproliferative, Cell Cycle Arrest-Inducing and Anti-Invasive Properties against Human Cervical Tumor Cells” (Pharmaceutics, 2021).
Like-named read-outs stand apart in the source and are kept apart here.

Columns and labels:
[1] = tested on: SiHa (HPV 16+) human cervical cell line; assay: Antiproliferative MTT assay, SiHa; assay type: cell-based; settings: for inhibition at 10 µM / inhibition at 30 µM: read-out: Growth Inhibition Values (%) ± SEM; for IC50: read-out: Calculated IC50 Values (μM) [95% CI]
Method: (§1) Antiproliferative effect of the isolated compounds were determined in vitro using SiHa (HPV 16+), HeLa (HPV 18+), C33A (HPV negative) human cervical cell lines, NIH-3T3 mouse embryonic and MRC-5 human fibroblast cells by means of MTT ([3-(4,5-dimethylthiazol-2-yl)-2,5-diphenyltetrazolium bromide]) assay. Briefly, a limited number of human cancer cells (5000/well for SiHa and HeLa cells, 10,000/well in case of C33A cells) were seeded onto a 96-well microplate and became attached to the bottom of the well overnight. On the second day of the procedure, the test substances were added in two concentrations (10.0 and 30.0 µM) in order to obtain preliminary data and then the compounds were applied in serial dilution (applied final concentrations were: 0.1, 0.3, 1.0, 3.0, 10.0, 30.0 µM). Further details of the experiment were described in ref. [30]. All in vitro experiments were carried out on two 96-well dishes with at least five parallel wells [31].

[2] = tested on: HeLa (HPV 18+) human cervical cell line; assay: Antiproliferative MTT assay, HeLa; assay type: cell-based; settings: for inhibition at 10 µM / inhibition at 30 µM: read-out: Growth Inhibition Values (%) ± SEM; for IC50: read-out: Calculated IC50 Values (μM) [95% CI]
Method: as §1

[3] = tested on: C33A (HPV negative) human cervical cell line; assay: Antiproliferative MTT assay, C33A; assay type: cell-based; settings: for inhibition at 10 µM / inhibition at 30 µM: read-out: Growth Inhibition Values (%) ± SEM
Method: as §1

[4] = tested on: GLC4 human small cell lung carcinoma; design: method as in PMID 8657743; settings: GLC4 cells; read-out: IC50 (cytotoxicity); cited from earlier work
[5] = tested on: COLO 320 human colorectal cancer cells; design: method as in PMID 8657743; settings: COLO 320 cells; read-out: IC50 (cytotoxicity); cited from earlier work
[6] = tested on: MRC-5 (human fibroblast); assay: Antiproliferative MTT assay, MRC-5; assay type: cell-based
Method: as §1

[7] = tested on: SiHa cells; assay: Cell cycle analysis by flow cytometry; assay type: cell-based, human; settings: 48 or 72 h treatment
Method: Cell cycle analysis was performed as described in [32, 33].

[8] = tested on: SiHa cells; assay: Wound healing assay; assay type: cell-based, human
Method: In order to assess antimetastatic activity of the tested compound, wound healing assay was performed. The assay was done with specific wound healing assay chambers (Ibidi GmbH, Gräfelfing, Germany). SiHa cells were collected and 35,000 cells were seeded into both chambers of the insert. Cells were let to be attached to the plate surface during an overnight incubation at 37 °C in 5% CO2 atmosphere and then the inserts were removed. Cell debris was removed by a washing step with PBS. Test compounds were added to the wells in increasing concentrations in 2% FBS containing medium for 24 and 48 h. Migration of the cells into the wound site was visualized by phase-contrast inverted microscope (Axiovert 40, Zeiss, Thornwood, NY, USA). Images were taken with CCD camera at definite intervals and the migration of the cells was calculated as the ratio of wound closure by ImageJ software.

[9] = tested on: NIH/3T3 (mouse embryonic fibroblast); assay: Antiproliferative MTT assay, NIH/3T3; assay type: cell-based
Method: as §1

[10] = Homo sapiens, C-33-A, read-out: Calculated IC50 Values (μM) [95% CI], C33A, MTT
[11] = Homo sapiens, MRC5, MRC-5, MTT, read-out: Calculated IC50 Values (μM) [95% CI]
[12] = Homo sapiens, MRC5, MRC-5, 10 μM, MTT, read-out: Growth Inhibition Values (%) ± SEM
[13] = Homo sapiens, MRC5, MRC-5, 30 μM, MTT, read-out: Growth Inhibition Values (%) ± SEM
[14] = MRC-5, MTT, read-out: Calculated IC50 Values (μM) [95% CI]
[15] = read-out: Calculated IC50 Values (μM) [95% CI], C33A, MTT
[16] = Mus musculus, NIH3T3, NIH/3T3, MTT, read-out: Calculated IC50 Values (μM) [95% CI]
[17] = Mus musculus, NIH3T3, NIH/3T3, 10 μM, MTT, read-out: Growth Inhibition Values (%) ± SEM
[18] = Mus musculus, NIH3T3, NIH/3T3, 30 μM, MTT, read-out: Growth Inhibition Values (%) ± SEM
[19] = NIH/3T3, MTT, read-out: Calculated IC50 Values (μM) [95% CI]
[20] = Homo sapiens, MRC5, read-out: Growth Inhibition Values (%) ± SEM
[21] = Mus musculus, NIH3T3, read-out: Growth Inhibition Values (%) ± SEM

Structure (SMILES)	inhibition at 10 µM ([1]; Homo sapiens, 10 μM) [%]	inhibition at 30 µM ([1]; Homo sapiens, 30 μM) [%]	IC50 ([1]; Homo sapiens) [µM]	inhibition at 10 µM ([2]; Homo sapiens, 10 μM) [%]	inhibition at 30 µM ([2]; Homo sapiens, 30 μM) [%]	IC50 ([2]; Homo sapiens) [µM]	IC50 [3, 10] [µM]	inhibition at 10 µM ([3]; Homo sapiens, C-33-A) [%]	inhibition at 30 µM ([3]; Homo sapiens, C-33-A) [%]	further results
C=C1C(=O)O[C@@H]2C[C@@H](C)C3=CC(=O)[C@](C)(O3)[C@H](OC(=O)CC(C)C)[C@@H](O)[C@@H]12 [Compound 1, 8β-Hydroxy-9α-isovaleroyloxycalyculatolide]	77.93 ± 0.56	92.1 ± 0.73	4.86	20.4 ± 0.62	81.8 ± 1.7	16.8	5.89	90 ± 2.54	91.79 ± 0.22	–
C=C1CC[C@@H](O)[C@]2(C)CC[C@@H](C(C)C)[C@H](O)[C@@H]12 [Compound 9, Volenol]	< 20	35.7 ± 1.29	–	< 20	37.3 ± 2.65	–	–	< 20	26.7 ± 2.73	–
COC[C@@H]1C(=O)O[C@@H]2C[C@@H](C)C3=CC(=O)[C@](C)(O3)[C@H](O)[C@@H](OC(=O)CC(C)C)[C@@H]12 [Compound 2, Lobatolide A]	< 20	< 20	–	< 20	21.6 ± 2.42	–	–	< 20	36.6 ± 2.95	–
C=C1C(=O)O[C@@H]2/C=C(/C)C3=CC(=O)[C@](C)(O3)[C@H](O)[C@@H](OC(=O)CC(C)C)[C@@H]12 [Lobatin B]	–	–	–	–	–	–	–	–	–	IC50 [4]: 0.6 µM; IC50 [5]: 1.1 µM
C=C1C(=O)OC2C=C(C)C(OC(C)=O)CC3OC3(C)CC(OC(=O)CC(C)C)C12 (centres unmarked) [Compound 6, Lobatolide C]	84.2 ± 2.32	84.8 ± 1.89	3.2 to 3.6	< 20	91.9 ± 1.23	15.7	3.2 to 3.6	96.55 ± 0.22	96.72 ± 0.33	IC50 [1]: 3.24 µM; IC50 [6, 11]: > 11 µM; inhibition at 10 µM [6, 12]: < 20%; inhibition at 30 µM [6, 13]: 73 ± 1.64%; IC50 [6, 14]: 11.9 µM; Cell cycle distribution [7]: significant concentration-dependent accumulation of cells in the S phase; IC50 [3, 15]: 3.53 µM; Wound closure ([8]; 1.5 µM, 48 h (control 70%)): 47%; Wound closure ([8]; 3 µM, 24 h (control 30%)): 12%; Wound closure ([8]; 3 µM, 48 h (control 70%)): 18%; IC50 [9, 16]: > 11 µM; inhibition at 10 µM [9, 17]: 40.7 ± 2.92%; inhibition at 30 µM [9, 18]: 96.8 ± 0.25%; IC50 [9, 19]: 11.2 µM
C=C1C(=O)O[C@@H]2/C=C(/C)C3=CC(=O)[C@](C)(O3)[C@H](OC(C)=O)[C@@H](OC(=O)CC(C)C)[C@@H]12 [Compound 4, Lobatin C]	79.8 ± 1.47	94.62 ± 0.27	2.22	83.9 ± 1.8	90.1 ± 1.03	5.1	2.05	97.27 ± 0.18	97.19 ± 0.41	–
CC(C)[C@@H]1CC[C@@]2(C)C(=O)CCC(CO)=C[C@@H]12 [Compound 10, (+)-aphanamol I]	< 20	< 20	–	< 20	36.5 ± 1.55	–	–	< 20	< 20	–
COC[C@H]1C(=O)O[C@@H]2C[C@@H](C)/C=C\C(=O)[C@](C)(O)[C@H](OC(C)=O)[C@@H](OC(=O)CC(C)C)[C@H]21 [Compound 5, Lobatolide B]	< 20	65.5 ± 2.52	–	< 20	63.9 ± 3.23	–	–	50.5 ± 3.49	90 ± 1.4	–
N.N.[Cl][Pt][Cl] [Cispl., cisplatin, reference compound]	–	–	–	–	–	–	–	–	–	Growth Inhibition Values (%) ± SEM ([1]; 10 μM): 60.98 ± 0.92%; Growth Inhibition Values (%) ± SEM ([1]; 30 μM): 88.95 ± 0.53%; IC50 [1]: 4.29 µM; Growth Inhibition Values (%) ± SEM ([6]; MRC-5, 30 μM, MTT): 70.65 ± 1.34%; IC50 [6, 14]: 5.77 µM; Growth Inhibition Values (%) ± SEM ([2]; 10 μM): 32.23 ± 1.16%; Growth Inhibition Values (%) ± SEM ([2]; 30 μM): 93.70 ± 0.82%; IC50 [2]: 12.1 µM; Growth Inhibition Values (%) ± SEM ([3]; C33A, 10 μM, MTT): 77.17 ± 1.21%; Growth Inhibition Values (%) ± SEM ([3]; C33A, 30 μM, MTT): 97.50 ± 0.13%; IC50 ([3]; C33A, MTT, read-out: Calculated IC50 Values (μM) [95% CI]): 5.85 µM; Growth Inhibition Values (%) ± SEM ([9]; NIH/3T3, 10 μM, MTT): 73.88 ± 0.46%; Growth Inhibition Values (%) ± SEM ([9]; NIH/3T3, 30 μM, MTT): 97.10 ± 0.15%; IC50 [9, 19]: 5.5 µM
C=C1C(=O)O[C@@H]2C[C@@H](C)/C=C\C(=O)[C@@](C)(O)[C@H](OC(C)=O)[C@@H](OC(=O)CC(C)C)[C@@H]12 [Neu B, neurolenin B, reference compound]	88.73 ± 0.36	93.42 ± 0.33	< 1.4	94 ± 0.59	94.81 ± 0.37	< 1.4	–	98.29 ± 0.03	97.91 ± 0.15	IC50 [1]: 1.33 µM; IC50 [4]: 1.1 µM; IC50 [6, 11]: 5.18 µM; inhibition at 10 µM [6, 12]: 94.26 ± 0.23%; inhibition at 30 µM [6, 13]: 97.46 ± 0.21%; IC50 [2]: 1.24 µM; IC50 [3, 15]: < 1.4 µM; IC50 [5]: 1.2 µM; IC50 [9, 16]: < 1.4 µM; inhibition at 10 µM [9, 17]: 98.11 ± 0.09%; inhibition at 30 µM [9, 18]: 98.02 ± 0.05%; IC50 [9, 19]: 1.31 µM
C=C1C(=O)O[C@@H]2[C@@H](CC3=C4[C@@H](C[C@@H](C)/C=C\C(=O)[C@](C)(O)[C@H](OC(C)=O)[C@H]4OC(=O)CC(C)C)OC3=O)[C@@H](C)C3=CC(=O)[C@](C)(O3)[C@H](O)[C@@H](OC(=O)CC(C)C)[C@@H]12 [Compound 7, Lobatolide D]	77.2 ± 1.04	93.5 ± 0.42	6.02	91.87 ± 0.72	96.44 ± 0.1	6	6.62	94.66 ± 0.19	95.18 ± 0.31	IC50 ([6]; Homo sapiens, MRC5, read-out: Calculated IC50 Values (μM) [95% CI]): 15.4 µM; inhibition at 10 µM [6, 20]: < 20%; inhibition at 30 µM [6, 20]: 97.63 ± 0.27%; IC50 ([9]; Mus musculus, NIH3T3, read-out: Calculated IC50 Values (μM) [95% CI]): 5.68 µM; inhibition at 10 µM [9, 21]: 90.7 ± 1.2%; inhibition at 30 µM [9, 21]: 98.06 ± 0.19%
C=C1C(=O)O[C@@H]2/C=C(/C)C3=CC(=O)[C@](C)(O3)[C@H](OC(=O)CC(C)C)[C@@H](O)[C@@H]12 [Compound 3, 8β-hydroxy-9α-isovaleroyloxyatripliciolide]	60.6 ± 1.58	78.8 ± 1.23	7.81	91.42 ± 0.34	96.6 ± 1.17	4.76	6.82	79.2 ± 3.33	94.46 ± 0.21	IC50 [6, 11]: 6.67 µM; inhibition at 10 µM [6, 12]: 88.1 ± 1.22%; inhibition at 30 µM [6, 13]: 97.58 ± 0.1%; IC50 [9, 16]: 4.12 µM; inhibition at 10 µM [9, 17]: 92.96 ± 0.56%; inhibition at 30 µM [9, 18]: 98.15 ± 0.13%
